Reference: ChEMBL document CHEMBL4627246, “Pyroglutamide-Based P2X7 Receptor Antagonists Targeting Inflammatory Bowel Disease” (J Med Chem, 2020)

Legend:
Type in all cases: cell-based
[1] = system: A549; test: Cytotoxicity against human A549/ATCC cells assessed as effect on cell growth at 10 uM incubated for 48 hrs by sulforhodamine B assay; conditions: a549, 48 h
[2] = system: SR; test: Cytotoxicity against human SR cells assessed as effect on cell growth at 10 uM incubated for 48 hrs by sulforhodamine B assay
[3] = system: EKVX; test: Cytotoxicity against human EKVX cells assessed as effect on cell growth at 10 uM incubated for 48 hrs by sulforhodamine B assay
[4] = system: K562; test: Cytotoxicity against human K562 cells assessed as effect on cell growth at 10 uM incubated for 48 hrs by sulforhodamine B assay; conditions: k562, 48 h
[5] = system: HOP-62; test: Cytotoxicity against human HOP62 cells assessed as effect on cell growth at 10 uM incubated for 48 hrs by sulforhodamine B assay; conditions: hop-62, 48 h
[6] = system: NCI-H226; test: Cytotoxicity against human NCI-H226 cells assessed as effect on cell growth at 10 uM incubated for 48 hrs by sulforhodamine B assay; conditions: nci-h226, 48 h
[7] = system: NCI-H460; test: Cytotoxicity against human NCI-H460 cells assessed as effect on cell growth at 10 uM incubated for 48 hrs by sulforhodamine B assay; conditions: nci-h460, 48 h
[8] = system: NCI-H522; test: Cytotoxicity against human NCI-H522 cells assessed as effect on cell growth at 10 uM incubated for 48 hrs by sulforhodamine B assay; conditions: nci-h522, 48 h
[9] = system: COLO 205; test: Cytotoxicity against human COLO205 cells assessed as effect on cell growth at 10 uM incubated for 48 hrs by sulforhodamine B assay; conditions: colo 205, 48 h
[10] = system: KM12; test: Cytotoxicity against human KM12 cells assessed as effect on cell growth at 10 uM incubated for 48 hrs by sulforhodamine B assay; conditions: km12, 48 h
[11] = system: SF-295; test: Cytotoxicity against human SF295 cells assessed as effect on cell growth at 10 uM incubated for 48 hrs by sulforhodamine B assay; conditions: sf-295, 48 h
[12] = system: LOX IMVI; test: Cytotoxicity against human LOXIMVI cells assessed as effect on cell growth at 10 uM incubated for 48 hrs by sulforhodamine B assay
[13] = system: SK-MEL-28; test: Cytotoxicity against human SK-MEL-28 cells assessed as effect on cell growth at 10 uM incubated for 48 hrs by sulforhodamine B assay; conditions: sk-mel-28, 48 h
[14] = system: SK-MEL-5; test: Cytotoxicity against human SK-MEL-5 cells assessed as effect on cell growth at 10 uM incubated for 48 hrs by sulforhodamine B assay; conditions: sk-mel-5, 48 h
[15] = system: UACC-257; test: Cytotoxicity against human UACC257 cells assessed as effect on cell growth at 10 uM incubated for 48 hrs by sulforhodamine B assay; conditions: uacc-257, 48 h
[16] = system: NCI/ADR-RES; test: Cytotoxicity against human NCI/ADR-RES cells assessed as effect on cell growth at 10 uM incubated for 48 hrs by sulforhodamine B assay
[17] = system: SK-OV-3; test: Cytotoxicity against human SKOV3 cells assessed as effect on cell growth at 10 uM incubated for 48 hrs by sulforhodamine B assay; conditions: sk-ov-3, 48 h
[18] = system: SN12C; test: Cytotoxicity against human SN12C cells assessed as effect on cell growth at 10 uM incubated for 48 hrs by sulforhodamine B assay
[19] = system: Hs-578T; test: Cytotoxicity against human Hs 578T cells assessed as effect on cell growth at 10 uM incubated for 48 hrs by sulforhodamine B assay
[20] = system: BT-549; test: Cytotoxicity against human BT549 cells assessed as effect on cell growth at 10 uM incubated for 48 hrs by sulforhodamine B assay; conditions: bt-549, 48 h

Measured: Activity

O=C1N[C@H](C(=O)NCc2ccc(Cl)cc2Cl)C/C1=C/NCc1ccc(Cl)cc1Cl
Non-Toxic: all assays above

O=C(NCc1ccc(Cl)cc1Cl)[C@@H]1CCC(=O)N1Cc1ccccc1
Non-Toxic: all assays above

O=C1N[C@H](C(=O)NCc2ccc(Cl)cc2Cl)CO1
Non-Toxic: all assays above

O=C(NCc1ccc(Cl)cc1Cl)c1ccccn1
Non-Toxic: all assays above

C[n+]1ccccc1C(=O)NCc1ccc(Cl)cc1Cl.[I-]
Non-Toxic: all assays above

CN(C)C(=O)[C@@H]1CCC(=O)N1
Non-Toxic: all assays above

O=C(NCc1ccc(Cl)cc1Cl)[C@@H]1CCC(=O)N1c1ccccc1
Non-Toxic: all assays above

O=C(Nc1ccc(Cl)cc1Cl)[C@@H]1CCC(=O)N1Cc1ccccc1Cl
Non-Toxic: all assays above

O=C1N[C@H](C(=O)NCc2ccc(Cl)cc2Cl)C/C1=C\N1CCOCC1
Non-Toxic: all assays above
